From patent US12226412B2, “Heteroaryl-ketone fused azadecalin glucocorticoid receptor modulators” (Corcept Therapeutics, Inc., priority 2012, dated 2025)
Like-named read-outs stand apart in the source and are kept apart here.

How the values were obtained:
human recombinant GR = target: T1, human recombinant GR (Homo sapiens, UniProt P04150); assay: Human glucocorticoid receptor (GR) fluorescence polarisation (FP) binding assay
T1 construct: purchased PanVera P2812
T1 sequence (P04150 1-777): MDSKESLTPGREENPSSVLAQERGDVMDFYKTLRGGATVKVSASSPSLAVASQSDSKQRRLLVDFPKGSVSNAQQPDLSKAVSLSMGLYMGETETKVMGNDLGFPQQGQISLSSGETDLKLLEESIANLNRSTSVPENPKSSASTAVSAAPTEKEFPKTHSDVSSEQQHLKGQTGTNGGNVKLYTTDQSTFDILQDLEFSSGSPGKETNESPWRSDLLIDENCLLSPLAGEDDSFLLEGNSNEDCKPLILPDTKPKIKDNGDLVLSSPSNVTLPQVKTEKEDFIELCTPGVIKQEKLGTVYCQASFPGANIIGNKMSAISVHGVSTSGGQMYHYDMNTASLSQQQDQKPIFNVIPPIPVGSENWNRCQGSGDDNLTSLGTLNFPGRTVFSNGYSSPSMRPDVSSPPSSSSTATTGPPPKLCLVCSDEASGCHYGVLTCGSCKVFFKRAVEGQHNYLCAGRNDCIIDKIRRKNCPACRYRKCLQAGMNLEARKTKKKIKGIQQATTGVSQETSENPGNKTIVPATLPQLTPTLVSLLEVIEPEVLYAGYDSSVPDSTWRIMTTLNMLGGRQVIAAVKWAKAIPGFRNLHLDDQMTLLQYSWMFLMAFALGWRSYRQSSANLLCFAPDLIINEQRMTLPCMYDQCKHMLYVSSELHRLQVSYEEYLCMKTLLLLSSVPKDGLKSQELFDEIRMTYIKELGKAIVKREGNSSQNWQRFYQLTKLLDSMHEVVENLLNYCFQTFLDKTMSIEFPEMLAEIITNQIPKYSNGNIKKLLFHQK
How it was run: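 Competition fluorescence polarisation: 0.5 nM GS Red labelled glucocorticoid and 1 nM recombinant human GR with 8-point half-log compound series, 1% DMSO, 4 h room temperature, potassium phosphate pH 7.4 buffer with molybdate, EDTA, DTT. Affinity derived from the drop in polarisation, normalised to blank wells.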

[1] = tested on: induction of TAT by dexamethasone in HepG2 cells; assay: HepG2 tyrosine aminotransferase (TAT) assay; format: cell-based, human
[2] = human recombinant GR, fluorescence polarisation binding assay, read-out: GR binding
[3] = HepG2 cells, challenge of 100 nM dexamethasone, Ki from IC50 by Cheng and Prusoff equation

SMILES	Ki (human recombinant GR; [2])	Ki [1, 3]	Ki (human recombinant GR)	Ki [1]
O=C(c1ccccn1)[C@]12Cc3cnn(-c4ccc(F)cc4)c3C=C1CCN(S(=O)(=O)c1cccc(F)c1)C2 [Example 5G, (R)-(1-(4-fluorophenyl)-6-((3-fluorophenyl)sulfonyl)-4,4a,5,6,7,8-hexahydro-1H-pyrazolo[3,4-g]isoquinolin-4a-yl)(pyridin-2-yl)methanone]	< 0.5 nM	< 20 nM	–	–
Cc1cnc(C(=O)[C@]23Cc4cnn(-c5ccc(F)cc5)c4C=C2CCN(S(=O)(=O)c2ccc(Cl)c(F)c2)C3)s1 [Example 12R, (R)-(6-((4-chloro-3-fluorophenyl)sulfonyl)-1-(4-fluorophenyl)-4,4a,5,6,7,8-hexahydro-1H-pyrazolo[3,4-g]isoquinolin-4a-yl)(5-methylthiazol-2-yl)methanone]	0.5 to 1 nM	< 20 nM	–	–
Cc1cccc(S(=O)(=O)N2CCC3=Cc4c(cnn4-c4ccc(F)cc4)C[C@]3(C(=O)c3nccs3)C2)c1 [Example 12A, (R)-(1-(4-fluorophenyl)-6-(m-tolylsulfonyl)-4,4a,5,6,7,8-hexahydro-1H-pyrazolo[3,4-g]isoquinolin-4a-yl)(thiazol-2-yl)methanone]	< 0.5 nM	< 20 nM	–	–
CCCn1cc(S(=O)(=O)N2CCC3=Cc4c(cnn4-c4ccc(F)cc4)C[C@]3(C(=O)c3ccccn3)C2)cn1 [Example 11CA, (R)-(1-(4-fluorophenyl)-6-((1-propyl-1H-pyrazol-4-yl)sulfonyl)-4,4a,5,6,7,8-hexahydro-1H-pyrazolo[3,4-g]isoquinolin-4a-yl)(pyridin-2-yl) methanone]	< 0.5 nM	< 20 nM	–	–
O=C(c1cocn1)[C@]12Cc3cnn(-c4ccc(F)cc4)c3C=C1CCN(S(=O)(=O)c1ccc(C(F)(F)F)cc1)C2 [Example 1E, (R)-(1-(4-fluorophenyl)-6-((4-(trifluoromethyl)phenyl)sulfonyl)-4,4a,5,6,7,8-hexahydro-1H-pyrazolo[3,4-g]isoquinolin-4a-yl)(oxazol-4-yl)methanone]	–	20 to 100 nM	< 0.5 nM	–
COc1ccnc(C(=O)[C@]23Cc4cnn(-c5ccc(F)cc5)c4C=C2CCN(S(=O)(=O)c2cc(F)cc(F)c2)C3)c1 [Example 1K, (R)-(6-((3,5-difluorophenyl)sulfonyl)-1-(4-fluorophenyl)-4,4a,5,6,7,8-hexahydro-1H-pyrazolo[3,4-g]isoquinolin-4a-yl)(4-methoxypyridin-2-yl)methanone]	< 0.5 nM	< 20 nM	–	–
CS(=O)(=O)c1cccc(S(=O)(=O)N2CCC3=Cc4c(cnn4-c4ccc(F)cc4)C[C@]3(C(=O)c3ccccn3)C2)c1 [Example 11Y, (R)-(1-(4-fluorophenyl)-6-((3-(methylsulfonyl)phenyl)sulfonyl)-4,4a,5,6,7,8-hexahydro-1H-pyrazolo[3,4-g]isoquinolin-4a-yl)(pyridin-2-yl)methanone]	< 0.5 nM	20 to 100 nM	–	–
O=C(c1cnccn1)[C@]12Cc3cnn(-c4ccc(F)cc4)c3C=C1CCN(S(=O)(=O)c1ccc(C(F)(F)F)cc1)C2 [Example 5E, (R)-(1-(4-fluorophenyl)-6-((4-(trifluoromethyl)phenyl)sulfonyl)-4,4a,5,6,7,8-hexahydro-1H-pyrazolo[3,4-g]isoquinolin-4a-yl)(pyrazin-2-yl)methanone]	–	–	< 0.5 nM	20 to 100 nM
Cc1ccnc(C(=O)[C@]23Cc4cnn(-c5ccc(F)cc5)c4C=C2CCN(S(=O)(=O)c2cnn(C)c2)C3)c1 [Example 11T, (R)-(1-(4-fluorophenyl)-6-((1-methyl-1H-pyrazol-4-yl)sulfonyl)-4,4a,5,6,7,8-hexahydro-1H-pyrazolo[3,4-g]isoquinolin-4a-yl)(4-methylpyridin-2-yl)methanone]	< 0.5 nM	< 20 nM	–	–
CC(C)n1cc(S(=O)(=O)N2CCC3=Cc4c(cnn4-c4ccc(F)cc4)C[C@]3(C(=O)c3ccccn3)C2)nn1 [Example 11CV, (R)-(1-(4-fluorophenyl)-6-((1-isopropyl-1H-1,2,3-triazol-4-yl)sulfonyl)-4,4a,5,6,7,8-hexahydro-1H-pyrazolo[3,4-g]isoquinolin-4a-yl)(pyridin-2-yl)methanone]	< 0.5 nM	20 to 100 nM	–	–
Cn1ccc(S(=O)(=O)N2CCC3=Cc4c(cnn4-c4ccc(C(F)(F)F)cc4)C[C@]3(C(=O)c3ccccn3)C2)n1 [Example 11BT, (R)-(6-((1-methyl-1H-pyrazol-3-yl)sulfonyl)-1-(4-(trifluoromethyl)phenyl)-4,4a,5,6,7,8-hexahydro-1H-pyrazolo[3,4-g]isoquinolin-4a-yl)(pyridin-2-yl)methanone]	> 1 nM	≥ 100 nM	–	–
CCc1ccnc(C(=O)[C@]23Cc4cnn(-c5ccc(F)cc5)c4C=C2CCN(S(=O)(=O)c2cccc(C(F)(F)F)n2)C3)c1 [Example 11AV, (R)-(4-ethylpyridin-2-yl) (1-(4-fluorophenyl)-6-((6-(trifluoromethyl)pyridin-2-yl)sulfonyl)-4,4a,5,6,7,8-hexahydro-1H-pyrazolo [3,4-g]isoquinolin-4a-yl)methanone]	< 0.5 nM	< 20 nM	–	–
O=C(c1cccs1)[C@]12Cc3cnn(-c4ccc(F)cc4)c3C=C1CCN(S(=O)(=O)c1ccc(C(F)(F)F)cc1)C2 [Example 1H, (R)-(1-(4-fluorophenyl)-6-((4-(trifluoromethyl)phenyl)sulfonyl)-4,4a,5,6,7,8-hexahydro-1H-pyrazolo[3,4-g]isoquinolin-4a-yl)(thiophen-2-yl)methanone]	–	–	< 0.5 nM	20 to 100 nM
COc1ccc(S(=O)(=O)N2CCC3=Cc4c(cnn4-c4ccc(F)cc4)C[C@]3(C(=O)c3ccccn3)C2)cn1 [Example 2R, (R)-(1-(4-fluorophenyl)-6-((6-methoxypyridin-3-yl)sulfonyl)-4,4a,5,6,7,8-hexahydro-1H-pyrazolo[3,4-g]isoquinolin-4a-yl)(pyridin-2-yl)methanone]	< 0.5 nM	< 20 nM	–	–
O=C(c1nccs1)[C@]12Cc3cnn(-c4ccc(F)cc4)c3C=C1CCN(S(=O)(=O)c1cncc(N3CCCCC3)c1)C2 [Example 7, (R)-(1-(4-fluorophenyl)-6-((5-(piperidin-1-yl)pyridin-3-yl)sulfonyl)-4,4a,5,6,7,8-hexahydro-1H-pyrazolo[3,4-g]isoquinolin-4a-yl)(thiazol-2-yl)methanone]	< 0.5 nM	20 to 100 nM	–	–
N#Cc1cccc(S(=O)(=O)N2CCC3=Cc4c(cnn4-c4ccc(F)cc4)C[C@]3(C(=O)c3cc(C(F)(F)F)ccn3)C2)c1 [Example 11BL, (R)-3-((1-(4-fluorophenyl)-4a-(4-(trifluoromethyl)picolinoyl)-4a,5,7,8-tetrahydro-1H-pyrazolo[3,4-g]isoquinolin-6 (4H)-yl)sulfonyl)benzonitrile]	< 0.5 nM	< 20 nM	–	–
Cc1cccc(S(=O)(=O)N2CCC3=Cc4c(cnn4-c4ccc(F)cc4)C[C@]3(C(=O)c3nccn3C)C2)c1 [Example 13A, (R)-(1-(4-fluorophenyl)-6-(m-tolylsulfonyl)-4,4a,5,6,7,8-hexahydro-1H-pyrazolo [3,4-g]isoquinolin-4a-yl)(1-methyl-1H-imidazol-2-yl)methanone]	< 0.5 nM	20 to 100 nM	–	–
Cc1csc(C(=O)[C@]23Cc4cnn(-c5ccc(F)cc5)c4C=C2CCN(S(=O)(=O)c2cccc(C(F)(F)F)c2)C3)n1 [Example 12M, (R)-(1-(4-fluorophenyl)-6-((3-(trifluoromethyl)phenyl)sulfonyl)-4,4a,5,6,7,8-hexahydro-1H-pyrazolo[3,4-g]isoquinolin-4a-yl)(4-methylthiazol-2-yl)methanone]	0.5 to 1 nM	20 to 100 nM	–	–
CCCn1nncc1S(=O)(=O)N1CCC2=Cc3c(cnn3-c3ccc(F)cc3)C[C@]2(C(=O)c2cscn2)C1 [Example 11CR, (R)-(1-(4-fluorophenyl)-6-((1-propyl-1H-1,2,3-triazol-5-yl)sulfonyl)-4,4a,5,6,7,8-hexahydro-1H-pyrazolo[3,4-g]isoquinolin-4a-yl)(thiazol-4-yl)methanone]	0.5 to 1 nM	20 to 100 nM	–	–
O=C(c1nccs1)[C@]12Cc3cnn(-c4ccc(F)cc4)c3C=C1CCN(S(=O)(=O)c1ccccc1)C2 [Example 12D, (R)-(1-(4-fluorophenyl)-6-(phenylsulfonyl)-4,4a,5,6,7,8-hexahydro-1H-pyrazolo [3,4-g]isoquinolin-4a-yl)(thiazol-2-yl)methanone]	< 0.5 nM	< 20 nM	–	–
O=C(c1nccs1)[C@]12Cc3cnn(-c4ccc(F)cc4)c3C=C1CCN(S(=O)(=O)c1cc(F)c(F)c(F)c1)C2 [Example 12J, (R)-(1-(4-fluorophenyl)-6-((3,4,5-trifluorophenyl)sulfonyl)-4,4a,5,6,7,8-hexahydro-1H-pyrazolo[3,4-g]isoquinolin-4a-yl)(thiazol-2-yl)methanone]	< 0.5 nM	20 to 100 nM	–	–
